Earlier results as cited in US6482863B2, “Insect repellant formulation deliverable by piezoelectric device” (S. C. Johnson & Son, Inc., priority 2000, dated 2002).

What was measured:
[1] = at 20° C.
[2] = at 25° C.

SMILES: COCC(C)O (stereo not shown) [Propylene glycol methyl ether]
- vapor pressure of solvent [1]: 8.1 mm Hg

SMILES: COCC(C)OCC(C)OC (stereo not shown) [Dipropylene glycol dimethyl ether]
- vapor pressure of solvent [1]: 0.55 mm Hg
- water solubility: 35 g/100 ml water
- viscosity of solvent [2]: 1 cp
